Data set [1] relates to recurrent, platinum-resistant ovarian cancer. The note with it: cited from earlier work.
Data set [2] is described as follows: Plasma pharmacokinetics of veliparib and topotecan. The note with it: for half-life / AUC(0-t): human, plasma; for AUC(0-t): oral. It counts as in vivo, human.
A further data set relates to patients. The note with it: cited from earlier work.
Data set [3] has as its system poly(ADP-ribose) (PAR) levels in peripheral blood mononuclear cells. In words: PAR levels in PBMCs by sandwich ELISA. The following applies: topotecan alone, Day 30 (Cycle 2 Day 2); of 20 quantifiable pairs. The class given is in vivo, human. In general terms: In an ELISA, binding on a coated surface is turned into a signal by an enzyme label.
Setting [4] is: daily 1-hour infusion for 5 consecutive days, recurrent platinum-resistant ovarian cancer.

Regarding `CC[C@@]1(O)C(=O)OCc2c1cc1n(c2=O)Cc2cc3c(CN(C)C)c(O)ccc3nc2-1` [topotecan], in data set [1] (setting [4]), the median overall survival is on record as 57 weeks and the overall response rate was 17%. For the same compound, the women with myelosuppression result in data set [1] (daily x 5 topotecan) is on record as “up to 75%”. Also, the response rate in data set [1] (phase II, days 1, 8, 15 of a 28-day cycle, platinum refractory/resistant ovarian cancer) is recorded as 18%. The “grade 4 toxicities” value in data set [1] (phase II, days 1, 8, 15 of a 28-day cycle, myelosuppression mild) is “no grade 4 toxicities observed”. Also, the half-life – broadly, the time needed for the level to fall by half in the phase considered – in data set [2] (iv) is 2.7 ± 0.6 h. Moreover, in data set [2] (topotecan administered alone on Cycle 2, iv), the “plasma clearance, mean (± SD)” value was found to be 10.1 ± 3.8 L/hr/m^2. The “single-agent MTD” value in the data set with patients (weekly topotecan (days 2, 9 and 16)) is 4 mg/m^2. Moreover, in data set [3], the “sample pairs with decreased PAR levels” value is 7, the “sample pairs with increased PAR levels” value is 11 and the “sample pairs with unchanged PAR levels” value came out at 2.

In the case of `C[C@]1(c2nc3c(C(N)=O)cccc3[nH]2)CCCN1` [veliparib], the values for the AUC(0-t) in data set [2] (10 mg) and in data set [2] (300 mg) were 351 ± 69 ng·h/mL and 15000 ± 3090 ng·h/mL, respectively. The compound also showed a half-life in data set [2] (po) of 6.1 ± 2.8 h. Besides, in the data set on patients (veliparib bid), the “single agent MTD” value is 400 mg.

Turning to `O=C(c1cc(Cc2n[nH]c(=O)c3ccccc23)ccc1F)N1CCN(C(=O)C2CC2)CC1` [olaparib], in the data set with patients (per dose, twice daily days 1–5, with irinotecan every two weeks), the “RP2D of the combination, olaparib dose” value is 50 mg.

Values taken from PMC7580251 (Clinical cancer research : an official journal of the …, 2017).
